20 molecules from US20080139564A1, “SUBSTITUTED PHENYL PROPYL AMINES AS HISTAMINE H3 RECEPTOR AND SEROTONIN TRANSPORTER MODULATORS” (priority 2006, published 2008) can be followed below.

The target of one assay is T1, human SERT (Homo sapiens, UniProt P31645).
T1 construct: expressed in transfected cells; host or cells: HEK293
The assay is described as follows: Human SERT binding (3H-citalopram displacement, HEK293 membranes). As to conditions: 3H-citalopram 3.1 nM, rt for 1 h. The procedure: Homogenized HEK293 (Human Embryonic Kidney) membranes expressing the human SERT were incubated with ^3H-citalopram (SERT) at rt for 1 h in 50 mM Tris, 120 mM NaCl, 5 mM KCl (pH 7.4). Nonspecific binding was determined in the presence of 10 μM fluoxetine for the SERT. The membranes were washed and the radioactivity was counted as above. Calculations for Ki at the SERT were based on a Kd value for ^3H-citalopram and a ligand concentration of 3.1 nM.

The target in assay [1] is T2, human H3 receptor (Homo sapiens, UniProt Q9Y5N1).
T2 construct: expressed in transfected cells
T2 sequence (Q9Y5N1 whole entry): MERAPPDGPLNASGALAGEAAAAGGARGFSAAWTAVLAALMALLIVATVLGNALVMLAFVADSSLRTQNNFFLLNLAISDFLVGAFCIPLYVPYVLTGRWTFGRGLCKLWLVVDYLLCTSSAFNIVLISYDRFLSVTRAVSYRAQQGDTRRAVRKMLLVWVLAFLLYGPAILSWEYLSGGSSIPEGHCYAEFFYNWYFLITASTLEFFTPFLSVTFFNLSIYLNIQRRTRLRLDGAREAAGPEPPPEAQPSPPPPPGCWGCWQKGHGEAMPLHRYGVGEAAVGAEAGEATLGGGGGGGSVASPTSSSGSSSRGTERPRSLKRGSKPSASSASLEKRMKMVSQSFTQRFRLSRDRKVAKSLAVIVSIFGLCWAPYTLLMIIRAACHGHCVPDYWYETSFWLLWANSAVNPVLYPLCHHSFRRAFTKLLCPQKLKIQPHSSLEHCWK
As to the kind of experiment: Cyclic AMP accumulation (β-galactosidase reporter in SK-N-MC cells). Format: cell-based. As for the experimental part: Sublines of SK-N-MC cells were created that expressed a reporter construct and the human H3 receptor. The reporter gene (β-galactosidase) is under the control of multiple cyclic AMP responsive elements. In 96-well plates, histamine was added directly to the cell media followed 5 min later by an addition of forskolin (5 μM final concentration). When appropriate, antagonists were added 10 min prior to agonist addition. After a 6-h incubation at 37° C., the media was aspirated and the cells washed with 200 μL of phosphate-buffered saline followed by a second aspiration. Cells were lysed with 25 μL 0.1× assay buffer (10 mM Na-phosphate, pH 8, 0.2 mM MgSO4, 0.01 mM MnCl2) and incubated at rt for 10 min. Cells were then incubated for 10 min with 100 μL of 1× assay buffer containing 0.5% Triton and 40 mM β-mercaptoethanol. Color was developed using 25 μL of 1 mg/mL substrate solution (chlorophenolred β-D galactopyranoside; Roche Molecular Biochemicals, Indianapolis, Ind.). Color was quantitated on a microplate reader at absorbance 570 nm. The pA2 values were calculated by Schild regression analysis of the pEC50 values.

In assay [2] the target is T2, human H3 receptor. The assay is described as follows: H3 receptor binding (N-[3H]-α-methylhistamine displacement, SK-N-MC cell membranes). The conditions noted are these: 0.8 nM N-[3H]-α-methylhistamine, 60 min at 25° C. As for the experimental part:
Binding of compounds to the cloned human H3 receptor, stably expressed in SK-N-MC cells, was performed (Lovenberg, T. W. et al. J. Pharmacol. Exp. Ther. 2000, 293, 771-778). Briefly, cell pellets from SK-N-MC cells expressing the human H3 receptor were homogenized in 50 mM Tris-HCl/5 mM EDTA and re-centrifuged at 30,000 g for 30 min. Pellets were re-homogenized in 50 mM Tris/5 mM EDTA (pH 7.4). Membranes were incubated with 0.8 nM N—[^3H]-α-methylhistamine plus/minus test compounds for 60 min at 25° C. and harvested by rapid filtration over GF/C glass fiber filters (pretreated with 0.3% polyethylenimine) followed by four washes with ice-cold buffer. Nonspecific binding was defined in the presence of 10 μM histamine.

A further assay has as its target T3, Rat SERT (Rattus norvegicus, UniProt P31652).
T3 construct: A rat brain without cerebellum (Zivic Laboratories, Inc.—Pittsburgh, Pa.) was homogenized; tissue Zivic Laboratories, Inc; host or cells: rat brain without cerebellum
As to the kind of experiment: Rat brain SERT binding ([3H]-Citalopram displacement, rat brain membranes). The conditions noted are these: 0.6 nM [3H]-Citalopram, 60 min at 25° C. The procedure:
A rat brain without cerebellum (Zivic Laboratories, Inc.—Pittsburgh, Pa.) was homogenized in a 52.6 mM Tris pH 8/126.4 mM NaCl/5.26 mM KCl mixture and centrifuged at 1,000 rpm for 5 min. The supernatant was removed and re-centrifuged at 15,000 rpm for 30 min. Pellets were re-homogenized in a 52.6 mM Tris pH8/126.4 mM NaCl/5.26 mM KCl mixture. Membranes were incubated with 0.6 nM [^3H]-Citalopram plus/minus test compounds for 60 min at 25° C. and harvested by rapid filtration over GF/C glass fiber filters (pretreated with 0.3% polyethylenimine) followed by four washes with ice-cold buffer. Nonspecific binding was defined in the presence of 100 μM fluoxetine.

[3] abbreviates: Schild regression analysis of the pEC50 values, histamine agonist, forskolin 5 μM, SK-N-MC reporter cells, read-out: pA2 (converted).

Molecules are shown by their SMILES. Where two headings read alike, the source gives them in different places.

T1 sequence (P31645 whole entry): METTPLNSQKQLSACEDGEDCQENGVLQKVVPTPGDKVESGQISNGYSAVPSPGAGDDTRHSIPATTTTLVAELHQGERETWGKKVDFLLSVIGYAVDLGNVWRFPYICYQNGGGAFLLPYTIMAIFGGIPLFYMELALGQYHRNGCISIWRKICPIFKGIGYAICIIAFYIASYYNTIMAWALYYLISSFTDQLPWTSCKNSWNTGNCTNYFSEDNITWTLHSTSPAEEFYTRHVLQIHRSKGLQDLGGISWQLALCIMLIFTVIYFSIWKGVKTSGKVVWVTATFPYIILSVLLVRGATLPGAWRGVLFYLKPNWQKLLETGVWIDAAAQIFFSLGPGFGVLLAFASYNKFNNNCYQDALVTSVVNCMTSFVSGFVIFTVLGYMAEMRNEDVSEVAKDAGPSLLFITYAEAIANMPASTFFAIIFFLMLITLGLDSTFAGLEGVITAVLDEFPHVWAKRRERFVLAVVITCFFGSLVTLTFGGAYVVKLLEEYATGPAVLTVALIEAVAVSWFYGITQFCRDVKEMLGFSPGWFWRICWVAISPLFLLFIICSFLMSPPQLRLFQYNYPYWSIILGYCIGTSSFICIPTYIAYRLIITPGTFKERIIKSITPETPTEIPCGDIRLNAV
T3 sequence (P31652 whole entry): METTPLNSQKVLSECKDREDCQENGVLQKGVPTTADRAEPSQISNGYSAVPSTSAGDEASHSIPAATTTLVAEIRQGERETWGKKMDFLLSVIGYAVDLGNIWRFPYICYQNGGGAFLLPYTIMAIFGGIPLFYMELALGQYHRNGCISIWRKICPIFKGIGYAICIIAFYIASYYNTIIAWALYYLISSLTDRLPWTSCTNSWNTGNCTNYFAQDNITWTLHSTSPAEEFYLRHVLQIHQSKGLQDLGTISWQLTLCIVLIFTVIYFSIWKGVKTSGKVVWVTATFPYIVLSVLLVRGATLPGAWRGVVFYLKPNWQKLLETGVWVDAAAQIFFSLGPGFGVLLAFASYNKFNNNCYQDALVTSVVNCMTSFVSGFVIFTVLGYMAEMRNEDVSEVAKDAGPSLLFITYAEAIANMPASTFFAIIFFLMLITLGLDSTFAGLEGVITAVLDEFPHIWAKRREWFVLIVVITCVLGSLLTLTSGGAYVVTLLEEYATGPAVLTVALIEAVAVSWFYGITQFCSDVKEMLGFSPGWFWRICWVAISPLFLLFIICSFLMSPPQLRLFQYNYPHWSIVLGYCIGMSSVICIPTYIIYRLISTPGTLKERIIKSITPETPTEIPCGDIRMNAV

As for `CN(C)CCC(Oc1ccccc1)c1ccc(OCCCN2CCCCC2)cc1` (stereo not drawn) [Example 1, Dimethyl-[3-phenoxy-3-[4-(3-piperidin-1-yl-propoxy)-phenyl]-propyl]-amine], the Ki (usually the equilibrium dissociation constant of an inhibitor or competing ligand from its target) worked out at 26 nM on human SERT, 0.7 nM at human H3 receptor [2] and 1 nM at Rat SERT. The molecule further had a Kb at human H3 receptor [1] of 0.468 nM.

As to `CN(C)CCC(Oc1ccc(C(F)(F)F)cc1)c1ccc(OCCCN2CCCCC2)cc1` (stereo not drawn) [Example 2, Dimethyl-[3-[4-(3-piperidin-1-yl-propoxy)-phenyl]-3-(4-trifluoromethyl-phenoxy)-propyl]-amine], the Ki amounted to 14 nM on human SERT, 2.5 nM on human H3 receptor [2] and 17 nM at Rat SERT. The Kb on human H3 receptor [1] (setting [3]) is 2.95 nM.

`COc1cccc(OC(CCN(C)C)c2ccc(OCCCN3CCCCC3)cc2)c1` (stereo not drawn) [Example 13, {3-(3-Methoxy-phenoxy)-3-[4-(3-piperidin-1-yl-propoxy)-phenyl]-propyl}-dimethyl-amine]: the Ki amounted to 11 nM at human SERT, 0.7 nM on human H3 receptor [2] and 3 nM on Rat SERT. Also, the Kb on human H3 receptor [1] (read-out: pA2 (converted)) is 0.617 nM.

`CN(C)CCC(Oc1cccc(Br)c1)c1ccc(OCCCN2CCCCC2)cc1` (stereo not drawn) [Example 15, {3-(3-Bromo-phenoxy)-3-[4-(3-piperidin-1-yl-propoxy)-phenyl]-propyl}-dimethyl-amine]: the figures for the Ki at human SERT, on human H3 receptor [2] and on Rat SERT were 4 nM, 1 nM and 2 nM, respectively. Also, the Kb at human H3 receptor [1] (setting [3]) is 1.58 nM.

For the molecule `CN(C)CCC(Oc1cccnc1)c1ccc(OCCCN2CCCCC2)cc1` (stereo not drawn) [Example 18, Dimethyl-[3-[4-(3-piperidin-1-yl-propoxy)-phenyl]-3-(pyridin-3-yloxy)-propyl]-amine], the Ki was found to be 91 nM at human SERT, 0.3 nM at human H3 receptor [2] and 9 nM at Rat SERT. Also, the Kb on human H3 receptor [1] (read-out: pA2 (converted)) is 0.0631 nM.

Regarding `CN(C)CCC(Oc1ccc(C(F)(F)F)cc1)c1ccc(C#CCCN2CCCCC2)cc1` (stereo not drawn) [Example 20, Dimethyl-[3-[4-(4-piperidin-1-yl-but-1-ynyl)-phenyl]-3-(4-trifluoromethyl-phenoxy)-propyl]-amine], the results for the Ki at human SERT, on human H3 receptor [2] and on Rat SERT were 61 nM, 9 nM and 58 nM, respectively. Moreover, the Kb at human H3 receptor [1] (setting [3]) was 5.62 nM.

Regarding `CN(C)CCC(Oc1ccccc1)c1ccc(C#CCCN2CCCCC2)cc1` (stereo not drawn) [Example 21, Dimethyl-{3-phenoxy-3-[4-(4-piperidin-1-yl-but-1-ynyl)-phenyl]-propyl}-amine], the figures for the Ki on human SERT, on human H3 receptor [2] and at Rat SERT were 29 nM, 1.2 nM and 5 nM, respectively. Besides, on human H3 receptor [1] (read-out: pA2 (converted)), the Kb was 0.661 nM.

For the molecule `CN(C)CCC(Oc1ccccc1)c1ccc(CCCCN2CCCCC2)cc1` (stereo not drawn) [Example 32, Dimethyl-{3-phenoxy-3-[4-(4-piperidin-1-yl-butyl)-phenyl]-propyl}-amine], the Ki at human SERT came to 10 nM; at human H3 receptor [2] it was 6 nM; at Rat SERT, 7 nM. Besides, on human H3 receptor [1] (read-out: pA2 (converted)), the Kb is 4.79 nM.

For `CC(C)N1CCC(Oc2ccc(C(CCN(C)C)Oc3ccccc3)cc2)CC1` (stereo not drawn) [Example 36, {3-[4-(1-Isopropyl-piperidin-4-yloxy)-phenyl]-3-phenoxy-propyl}-dimethyl-amine], the Ki worked out at 169 nM at human SERT, 0.8 nM on human H3 receptor [2] and 36 nM on Rat SERT. The Kb on human H3 receptor [1] (read-out: pA2 (converted)) was 6.92 nM.

Take `CC(C)N1CCN(C(=O)c2ccc(C(CCN(C)C)Oc3ccccc3)cc2)CC1` (stereo not drawn) [Example 38, [4-(3-Dimethylamino-1-phenoxy-propyl)-phenyl]-(4-isopropylpiperazin-1-yl)-methanone]: the Ki on human SERT is 245 nM; at human H3 receptor [2], 0.7 nM; at Rat SERT, 161 nM. For the same molecule, on human H3 receptor [1] (read-out: pA2 (converted)), the Kb is 0.214 nM.

For the molecule `CC(C)N1CCN(C(=O)c2ccc(C(CCN(C)C)Oc3ccc(Cl)c(Cl)c3)cc2)CC1` (stereo not drawn) [Example 40, {4-[1-(3,4-Dichloro-phenoxy)-3-dimethylamino-propyl]-phenyl}-(4-isopropyl-piperazin-1-yl)-methanone], the Ki worked out at 7 nM at human SERT, 2 nM at human H3 receptor [2] and 18 nM on Rat SERT. Moreover, the Kb on human H3 receptor [1] (read-out: pA2 (converted)) is 2.19 nM.

`CN(C)CCC(Oc1ccc(OCCCN2CCCCC2)cc1)c1ccccc1` (stereo not drawn) [Example 41, Dimethyl-{3-phenyl-3-[4-(3-piperidin-1-yl-propoxy)-phenoxy]-propyl}-amine]: the figures for the Ki on human SERT, on human H3 receptor [2] and on Rat SERT were 282 nM, 1 nM and 18 nM, respectively. Moreover, on human H3 receptor [1] (read-out: pA2 (converted)), the Kb is 0.759 nM.

Consider `CN(C)CCC(Oc1ccc(OCCCN2CCCCC2)cc1)c1ccc(C(F)(F)F)cc1` (stereo not drawn) [Example 42, Dimethyl-[3-[4-(3-piperidin-1-yl-propoxy)-phenoxy]-3-(4-trifluoromethyl-phenyl)-propyl]-amine], for which the results for the inhibition constant (Ki) on human SERT, at human H3 receptor [2] and at Rat SERT were 180 nM, 2 nM and 9 nM, respectively. The Kb on human H3 receptor [1] (read-out: pA2 (converted)) was 3.89 nM.

As to `CN(C)CCC(Oc1ccc(OCCCN2CCCCC2)cc1)c1ccc(Cl)cc1` (stereo not drawn) [Example 43, {3-(4-Chloro-phenyl)-3-[4-(3-piperidin-1-yl-propoxy)-phenoxy]-propyl}-dimethyl-amine], the Ki worked out at 163 nM at human SERT, 1 nM on human H3 receptor [2] and 23 nM on Rat SERT. Also, the Kb on human H3 receptor [1] (read-out: pA2 (converted)) is 1.7 nM.

In the case of `CC(C)N1CCC(Oc2ccc(OC(CCN(C)C)c3ccccc3)cc2)CC1` (stereo not drawn) [Example 44, {3-[4-(1-Isopropyl-piperidin-4-yloxy)-phenoxy]-3-phenyl-propyl}-dimethyl-amine], the Ki came out at 90 nM at human SERT, 0.9 nM on human H3 receptor [2] and 18 nM on Rat SERT. At human H3 receptor [1] (read-out: pA2 (converted)), the Kb is 0.0977 nM.

Consider `CCC(C)N1CCN(C(=O)c2ccc(C(CCN(C)C)Oc3ccc(C(F)(F)F)cc3)cc2)CC1` (stereo not drawn) [Example 52, (4-sec-Butyl-piperazin-1-yl)-{4-[3-dimethylamino-1-(4-trifluoromethyl-phenoxy)-propyl]-phenyl}-methanone], for which the Kb on human H3 receptor [1] (read-out: pA2 (converted)) was 1.2 nM. The Ki on human H3 receptor [2] amounted to 2 nM; on Rat SERT, 33 nM.

As to `CCC(CC)N1CCN(C(=O)c2ccc(C(CCN(C)C)Oc3ccc(C(F)(F)F)cc3)cc2)CC1` (stereo not drawn) [Example 53, {4-[3-Dimethylamino-1-(4-trifluoromethyl-phenoxy)-propyl]-phenyl}-[4-(1-ethyl-propyl)-piperazin-1-yl]-methanone], on human H3 receptor [1] (read-out: pA2 (converted)), the Kb is 2.45 nM. Moreover, the figures for the Ki on human H3 receptor [2] and at Rat SERT were 8 nM and 102 nM, respectively.

Consider `CCC(CC)N1CCN(Cc2ccc(C(CCN(C)C)Oc3ccc(C(F)(F)F)cc3)cc2)CC1` (stereo not drawn) [Example 54, [3-{4-[4-(1-Ethyl-propyl)-piperazin-1-ylmethyl]-phenyl}-3-(4-trifluoromethyl-phenoxy)-propyl]-dimethyl-amine], for which, at human H3 receptor [1] (read-out: pA2 (converted)), the Kb was 18.6 nM. Besides, the figures for the Ki at human H3 receptor [2] and on Rat SERT were 5 nM and 37 nM, respectively.

`CC(C)N1CCN(Cc2ccc(C(CCN(C)C)Oc3ccc(C(F)(F)F)cc3)cc2)CC1` (stereo not drawn) [Example 55, [3-[4-(4-Isopropyl-piperazin-1-ylmethyl)-phenyl]-3-(4-trifluoromethyl-phenoxy)-propyl]-dimethyl-amine]: on human H3 receptor [1] (read-out: pA2 (converted)), the Kb was 9.33 nM. Moreover, the Ki is 2 nM on human H3 receptor [2] and 27 nM on Rat SERT.

For the molecule `CN(C)CCC(Oc1ccc(C#CCCN2CCCCC2)cc1)c1ccc(C(F)(F)F)cc1` (stereo not drawn) [Example 60, Dimethyl-[3-[4-(4-piperidin-1-yl-but-1-ynyl)-phenoxy]-3-(4-trifluoromethyl-phenyl)-propyl]-amine], at human H3 receptor [1] (read-out: pA2 (converted)), the Kb is 17.8 nM. Moreover, the Ki on human H3 receptor [2] is 24 nM; at Rat SERT, 168 nM.
